From a melting point compilation (Tetko et al.; mined from patent text by program, amines drawn as free bases though some values may be those of a salt)

SMILES	melting point [°C]
CSC(=CC(=O)c1ccccc1)CC(=O)c1ccccc1	106 to 108
O=C(c1ccc(Br)cc1)c1cc(Br)c(C(=O)c2ccc(Br)cc2)cc1Br	254 to 256
Oc1c(-c2ccccc2)cc(C2c3ccccc3-c3ccccc32)cc1-c1ccccc1	144 to 145
COC(=O)CP(=O)(O)C(CCCc1ccccc1)NC(=O)OCc1ccccc1 (stereo unspecified)	107 to 109
Brc1ccnc2cc3c(cc12)OCO3	147 to 149
Cn1ccnc1CCc1cc2c(cc1O)CCO2	190 to 191
CC(C)(C)c1cc(CC#Cc2ccc(C(=O)O)c(O)c2)cc(C(C)(C)C)c1O	205 to 206
CCOC(=O)C(=CNCc1cnsn1)C(=O)c1cc(F)c(F)cc1F	168 to 170
CC12CC(CCCCCCl)C3c4ccc(O)cc4CCC3C1CCC2O (stereo unspecified)	159
CN(C)CCOc1ccccc1-c1cc(NC(N)=O)c(C(N)=O)s1	180
CCCCCCCCCCNC(=S)Nc1ccc(NNC=O)cc1	150 to 152
CC1CC(=O)NN=C1c1ccc(-n2ccnc2)nc1 (stereo unspecified)	140
CN1CCN(c2cc3nc(C(C)(C)C)sc3cc2N=C=O)CC1	124 to 126
COc1cc(-c2nc(-c3ccc(N(C)C)cc3)c(C)[nH]2)cc(OC)c1OP(=O)(O)O	196 to 198
O=C(O)C(F)c1cccc(OCc2ccccc2Cl)c1OCc1ccccc1Cl (stereo unspecified)	92 to 94
CC(=O)OC1CSC(Oc2cncc(-c3cccs3)c2)C(OC(C)=O)C1OC(C)=O (stereo unspecified)	166
COc1cc(C=O)cc2c1OCCC2=O	139
CC(C)(C)NC(=O)[C@@H]1CCCN1C(=O)[C@@H](O)[C@H](Cc1ccccc1)NC(=O)[C@H](CC(N)=O)NC(=O)COc1cccc(N)c1	108 to 114
CCCCOc1c(NC(C)C(C)(C)C)c(=O)c1=O (stereo unspecified)	90 to 99
Cn1c(=O)c(C#N)c(Cl)c2cc(F)ccc21	258

SMILES	melting point [°C]
Cc1nccc2c3ccc(OCCC(C)C)cc3n(CCC(C)C)c12	106
COC(=O)c1c(C)sc2cc(CCl)ccc12	78 to 79
CC1(C)C(C=CC(=O)OCC(F)(F)F)C1C(=O)OC(C#N)c1ccc(F)c(Oc2ccccc2)c1 (stereo unspecified)	56
CCOC(=O)COC(=O)c1cc(S(N)(=O)=O)c(Cl)cc1NCc1ccco1	46
CC1(C)CCC(S)(CCOC(=O)CCC(=O)O)CC1	55 to 60
CN(C)CCCN(C)C1CCC2C3CCC4CCCCC4(C)C3C(O)CC21C (stereo unspecified)	130 to 131
CCCCCC(=O)N1c2ccccc2NC(=O)c2cscc21	127 to 129
CC(C)c1cn2ccccc2c1Sc1ccc(O)cc1	100
CC(C)c1cccc(C(C)C)c1NS(=O)(=O)CC#N	195 to 197
CON=Cc1ncn2c1[C@@H]1CCN1C(=O)c1c(Cl)cccc1-2	199 to 200
CCOC(=O)C(=CNc1ccc2c(c1)CCC2)C(=O)OCC	25 to 30
CNC(=O)[C@@H]1O[C@H]1c1ccc(OC)cc1	135 to 136
CCN(CC)c1ccc(C(=O)O)nc1	146 to 148
O=C(O)C(=O)c1ccc(S(=O)(=O)CCOc2ccc3ccccc3c2)cc1	135 to 136
CCOC(=O)Nc1ccc2c(c1)C(c1ccccc1Cl)S(=O)(=O)CCC(=O)N2 (stereo unspecified)	295 to 296
COc1cccc(C#Cc2ccncc2)c1	33 to 35
Cc1cc(C)c(CSc2ccccc2)c(-c2ccc(F)c(C)c2)c1	72 to 74
N#Cc1nn(-c2ccccc2)c(OC(F)F)c1CO	71 to 72
O=C(CBr)c1cc2ccccc2[nH]1	125 to 130

Now from value to compound:

melting point [°C]	SMILES
132 to 134	NC(=O)c1cc(Cl)c(Cl)cc1C(=O)NCCN1CCC(c2noc3cc(F)ccc23)CC1
156 to 158	CN(Cc1ccccc1)C(=O)Nc1ccc(CN2C(=O)C3CCCC3N(C(=O)CN3C(=O)c4ccccc4C3=O)c3ccccc32)cc1 (stereo unspecified)
152 to 153	CC(C)(C)OC(=O)NC(CF)C(F)CN1C(=O)c2ccccc2C1=O (stereo unspecified)
98.5 to 100	O=C1NCC(Cc2ccc3c(c2)OCO3)O1 (stereo unspecified)
182 to 184	COc1cc2cc(C(=O)N3CC(CCl)c4c3cc(OCc3ccccc3)c3ncccc43)[nH]c2c(OC)c1OC (stereo unspecified)
134 to 135	OCc1c[nH]c(Cc2ccccc2)n1
178	CCOC(=O)c1ccc(-c2cnc3c(c2)N(Cc2ccccc2)C(=O)CN3)cc1
155 to 157	CCc1c2c(c(CC)c3ccc(OC)cc13)-c1ccc(OC)cc1C2
137 to 141	CC(=O)n1c(=O)n(CCN2CCC(C(=O)c3ccc(F)cc3)CC2)c(=O)c2ccsc21
150 to 152	CCN(CC)S(=O)(=O)c1ccc(C(CC2CCCC2)C(=O)Nc2nc3ccc(OC)nc3s2)cc1 (stereo unspecified)
166	COCCN1CCn2c1nc(C(=O)NCc1ccc(F)cc1)c(O)c2=O
188	Cc1cc2c3c(c1)C(=O)C(=O)N3CCC2
192 to 194	CN1C(=O)C2(COc3cc4c(cc32)OCCO4)c2c(NC(=O)c3ccccc3)cccc21 (stereo unspecified)
219 to 221	CC(C)(F)C1COCc2nc3c(N)nc4cc(O)ccc4c3n21 (stereo unspecified)
105 to 107	CC(=O)c1cccc(Oc2ncccc2C(=O)NCC2CCC(C(C)(C)O)CC2)c1 (stereo unspecified)
152 to 154	OCc1cccc(C(O)c2cc(C(F)(F)F)nc3c(C(F)(F)F)cccc23)c1 (stereo unspecified)

melting point [°C]	SMILES
150 to 175	NC(=O)N1C(=O)C(=C(OC(=O)COCc2ccccc2)c2cccs2)c2cc(F)c(Cl)cc21
161 to 166	CCN1CCCC1CNC(=O)c1ccc2c(c1)C(=O)C1(CC1)O2 (stereo unspecified)
230	CC(=O)Nc1nc2c(Nc3ncnc4cc(Cl)ccc34)cccc2s1
156	CCOC(=O)C1=C(C)NC(N)=C(C(=O)OCC)C1c1ccccc1C(F)(F)F (stereo unspecified)
150 to 152	CC1=C(C(=O)OC(C)C)C(c2cccc([N+](=O)[O-])c2)N(CCCc2ccccc2)C(=O)N1 (stereo unspecified)
225 to 227	O=C(O)c1cccc(CN2CCN(c3ccc(NC(=O)c4ccccc4-c4ccc(C(F)(F)F)cc4)cc3)CC2)c1
> 300	C[C@H]1CCCN(C(=O)[C@@H]2Cc3ccccc3N2c2ccc3nncn3n2)C1
212 to 213	CCc1[nH]n(C2CCCC2)c2nc(Cc3ccc(C(F)(F)F)cc3)nc(=O)c1-2
> 260	CC1Cc2cc3c(cc2C(c2ccc([N+](=O)[O-])cc2)=NN1c1nc(C(=O)O)cs1)OCO3 (stereo unspecified)
284 to 286	CNc1nc(Nc2ccc(Cl)c(Cl)c2)ncc1NC(=O)C(C)C
268 to 270	Cn1cc(C(N)=O)c(=O)c2ccc(C(C)(C)C)cc21
133	Cc1cc2cccc(OCCNCc3cccc(C4=CCCC4)c3)c2o1
160	Cc1cc(-n2ccnc2)c2cccc(OCc3c(Cl)ccc(S(=O)(=O)N4CCC[C@H]4C(=O)NCC4CCN(CCO)CC4)c3Cl)c2n1
125 to 127	COC(=O)C(=CNC1CC1)C(=O)C=Cc1ccc(OC)cc1
96 to 98	O=CC1CCc2[nH]c3ccc(F)cc3c2C1 (stereo unspecified)
85 to 87	CC(=O)NCCC1CCc2ccc3nc(CCc4ccccc4)oc3c21 (stereo unspecified)
